Laboratory results taken from ChEMBL document CHEMBL6092203, “Discovery of Novel PROTAC-Based HPK1 Degraders with High Potency and Selectivity for Cancer Immunotherapy” (J Med Chem, 2024).
The source made the active and inactive calls. No cut-off for these calls is given here.

What was measured:
MC-38 [1] = assay: Synergistic antitumor activity against mouse MC38 cells implanted in C57BL/6J mouse assessed as tumor growth inhibition at 1 mg/kg, po bid measured after 4 weeks in presence of 5 mg/kg anti-PD1 and measured twice a week; assay type: functional; settings: MC-38, 672 h, read-out: TGI
[2] = Initial plasma concentration in Beagle dog at 1 mg/kg, iv measured upto 24 hrs by LC-MS analysis; assay type: ADME, organism-based, Canis lupus familiaris; settings: in vivo
[3] = AUCinfinity in Beagle dog at 1 mg/kg, iv measured upto 24 hrs by LC-MS analysis; assay type: ADME, organism-based, Canis lupus familiaris; settings: in vivo
[4] = Metabolic stability in rat hepatocytes assessed as intrinsic clearance at 1 uM incubated for 90 mins by LC-MS/MS method; assay type: ADME, cell-based, Hepatocyte; settings: 1.5 h
MC-38 [5] = assay: Synergistic antitumor activity against mouse MC38 cells implanted in C57BL/6J mouse assessed as tumor growth inhibition at 0.1 mg/kg, po bid measured after 4 weeks in presence of 5 mg/kg anti-PD1 and measured twice a week; assay type: functional; settings: MC-38, 672 h, read-out: TGI
MC-38 [6] = assay: Antitumor activity against mouse MC38 cells implanted in C57BL/6J mouse assessed as reduction in tumor weight at 0.5 mg/kg, po BID administered for 3 to 4 weeks (reference value: 1.79 +/- 0.24 g); assay type: functional; settings: time 3-4 weeks
[7] = Drug metabolism in rat hepatocytes assessed as phase 1 metabolites formation at 10 uM incubated for 120 mins by UHPLC-UV/MS/MS method; assay type: ADME, cell-based, Hepatocyte; settings: 2 h
[8] = Tmax in male Sprague-Dawley rat at 30 mg/kg/day, po measured at day 1; assay type: ADME, organism-based; settings: in vivo, time 1 day
in vivo [9] = settings: male, Sprague-Dawley, rat, po, 30 mg/kg
[10] = Volume of distribution at steady state in Sprague-Dawley rat at 2 mg/kg, iv measured upto 24 hrs by LC-MS analysis; assay type: ADME, organism-based; settings: in vivo, read-out: Vdss
in vivo [11] = settings: male, Sprague-Dawley, rat, po, 100 mg/kg
[12] = In vivo induction of HPK1 degradation in C57BL/6J mouse spleen at 0.5 mg/kg administered as single dose and measured after 8 to 24 hrs; assay type: functional; settings: time 8-24 hrs
[13] = In vivo induction of phosphorylated SLP-76 degradation in C57BL/6J mouse spleen at 0.5 mg/kg administered as single dose and measured after 12 hrs; assay type: functional
[14] = Tmax in female Sprague-Dawley rat at 2 mg/kg/day, po measured at day 14; assay type: ADME, organism-based; settings: in vivo, time 14 day
in vivo [15] = settings: Sprague-Dawley, rat, po, 1 mg/kg
in vivo [16] = settings: female, Sprague-Dawley, rat, po, 2 mg/kg
[17] = Tmax in female Sprague-Dawley rat at 100 mg/kg/day, po measured at day 1; assay type: ADME, organism-based; settings: in vivo, time 1 day
[18] = Clearance in Beagle dog at 1 mg/kg, iv measured upto 24 hrs by LC-MS analysis; settings: in vivo
[19] = Drug distribution in rat lung measured after 0.5 to 6 hrs; assay type: ADME, tissue-based; settings: in vivo, time 0.5-6 hrs
[20] = Half-life in Sprague-Dawley rat at 1 mg/kg, po measured upto 24 hrs by LC-MS analysis; settings: in vivo
[21] = AUCinfinity in C57BL/6J mouse at 10 mg/kg, po measured upto 24 hrs by LC-MS analysis; assay type: ADME, organism-based; settings: in vivo
in vivo [22] = settings: female, Sprague-Dawley, rat, po, 100 mg/kg
[23] = Metabolic stability in monkey hepatocytes assessed as intrinsic clearance at 1 uM incubated for 90 mins by LC-MS/MS method; assay type: ADME, cell-based, Macaca mulatta, Hepatocyte; settings: rhesus monkey, 1.5 h
MC-38 [24] = assay: Antitumor activity against mouse MC38 cells implanted in C57BL/6J mouse assessed as tumor weight inhibition rate at 100 mg/kg, po QD administered for 4 weeks; assay type: functional; set-up: scale not given: the % may be the effect or the level left
[25] = Drug metabolism in dog hepatocytes assessed as phase 1 metabolites formation at 10 uM incubated for 120 mins by UHPLC-UV/MS/MS method; assay type: ADME, cell-based, Canis lupus familiaris, Hepatocyte; settings: 2 h
MC-38 [26] = assay: Synergistic antitumor activity against mouse MC38 cells implanted in C57BL/6J mouse assessed as reduction in tumor volume at 100 mg/kg, po QD administered for 3 to 4 weeks in presence of 5 mg/kg anti-PD1 and measured twice a week (reference value: 1549.22 +/- 217.92 mm3); assay type: functional; settings: time 3-4 weeks
MC-38 [27] = assay: Antitumor activity against mouse MC38 cells implanted in C57BL/6J mouse assessed as reduction in tumor volume at 100 mg/kg, po QD administered for 3 to 4 weeks (reference value: 1549.22 +/- 217.92 mm3); assay type: functional; settings: time 3-4 weeks
[28] = Toxicity in C57BL/6J mouse assessed as change in body weight at 100 mg/kg, po qd measured after 28 days; assay type: organism-based; settings: in vivo, 672 h, time 28 day
MC-38 [29] = assay: Antitumor activity against mouse MC38 cells implanted in C57BL/6J mouse assessed as tumor growth inhibition at 100 mg/kg, po QD administered for 4 weeks; assay type: functional; settings: MC-38, 672 h, read-out: TGI
[30] = Tmax in Beagle dog at 5 mg/kg, po measured upto 24 hrs by LC-MS analysis; assay type: ADME, organism-based, Canis lupus familiaris; settings: in vivo
in vitro = settings: rat, liver microsomes
[31] = target: T1, Protein cereblon/Mitogen-activated protein kinase kinase kinase kinase 1 (Homo sapiens, UniProt Q92918+Q96SW2); assay: PROTAC activity at CRBN/HPK1 in human Jurkat cells assessed as HPK1 degradation at 0.01 uM pretreated with MG132 for 4 hrs followed by compound addition and measured after 24 hrs by Western blotting analysis; assay type: cell-based
T1 sequence (Q92918 whole entry, looked up): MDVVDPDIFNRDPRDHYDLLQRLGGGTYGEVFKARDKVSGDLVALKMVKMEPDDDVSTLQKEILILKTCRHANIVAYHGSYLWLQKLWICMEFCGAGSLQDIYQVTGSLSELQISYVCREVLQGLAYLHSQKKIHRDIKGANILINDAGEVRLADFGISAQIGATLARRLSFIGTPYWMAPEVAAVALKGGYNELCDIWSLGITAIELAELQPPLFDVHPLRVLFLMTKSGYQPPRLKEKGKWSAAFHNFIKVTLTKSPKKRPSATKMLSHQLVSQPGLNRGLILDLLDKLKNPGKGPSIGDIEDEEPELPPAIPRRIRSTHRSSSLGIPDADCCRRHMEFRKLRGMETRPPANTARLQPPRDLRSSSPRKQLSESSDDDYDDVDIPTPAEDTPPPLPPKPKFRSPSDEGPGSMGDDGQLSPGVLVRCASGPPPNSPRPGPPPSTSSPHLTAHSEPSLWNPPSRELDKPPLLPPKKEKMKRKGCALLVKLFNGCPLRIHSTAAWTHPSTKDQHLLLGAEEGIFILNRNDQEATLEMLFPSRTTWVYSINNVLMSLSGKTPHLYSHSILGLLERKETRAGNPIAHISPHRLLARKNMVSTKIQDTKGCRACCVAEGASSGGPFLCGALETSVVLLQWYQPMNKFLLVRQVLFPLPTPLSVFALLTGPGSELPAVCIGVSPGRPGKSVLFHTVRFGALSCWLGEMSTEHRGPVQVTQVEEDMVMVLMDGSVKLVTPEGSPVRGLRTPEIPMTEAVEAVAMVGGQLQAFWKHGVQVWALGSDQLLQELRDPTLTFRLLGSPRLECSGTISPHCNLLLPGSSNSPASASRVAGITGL
T1 sequence (Q96SW2 whole entry, looked up): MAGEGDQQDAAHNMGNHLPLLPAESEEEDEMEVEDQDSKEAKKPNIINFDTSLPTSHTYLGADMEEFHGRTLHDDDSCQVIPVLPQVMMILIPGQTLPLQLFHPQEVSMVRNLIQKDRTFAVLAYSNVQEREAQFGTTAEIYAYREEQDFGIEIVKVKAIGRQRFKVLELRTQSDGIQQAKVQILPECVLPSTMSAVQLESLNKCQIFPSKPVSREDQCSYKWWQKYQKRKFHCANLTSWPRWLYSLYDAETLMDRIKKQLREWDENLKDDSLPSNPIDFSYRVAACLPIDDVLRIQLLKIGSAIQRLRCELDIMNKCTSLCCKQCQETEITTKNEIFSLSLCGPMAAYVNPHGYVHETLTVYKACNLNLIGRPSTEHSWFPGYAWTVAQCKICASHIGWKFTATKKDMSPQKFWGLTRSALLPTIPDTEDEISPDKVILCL

[32] = target: T1, Protein cereblon/Mitogen-activated protein kinase kinase kinase kinase 1; assay: PROTAC activity at CRBN/HPK1 in human Jurkat cells assessed as HPK1 degradation at 1 uM after 4 hrs by Western blotting analysis; assay type: cell-based
[33] = Effect on action potential in rabbit purkinje fibers; assay type: toxicity, tissue-based, Oryctolagus cuniculus, Purkinje fiber
[34] = Drug metabolism in monkey hepatocytes assessed as phase 1 metabolites formation at 10 uM incubated for 120 mins by UHPLC-UV/MS/MS method; assay type: ADME, cell-based, Macaca mulatta, Hepatocyte; settings: rhesus monkey, 2 h
in vivo [35] = settings: female, Sprague-Dawley, rat, po, 30 mg/kg
Jurkat = assay: Effect on SLP76 total protein expression in human Jurkat cells at 1 to 2000 nM incubated for 24 hrs by Western blotting assay; assay type: functional, cell-based; settings: dose 1-2000 nM
[36] = Toxicity in Sprague-Dawley rat assessed as efficacy dose measured after 14 days; settings: in vivo, 336 h, time 14 day
[37] = Tmax in female Sprague-Dawley rat at 30 mg/kg/day, po measured at day 1; assay type: ADME, organism-based; settings: in vivo, time 1 day
[38] = Metabolic stability in human hepatocytes assessed as intrinsic clearance at 1 uM incubated for 90 mins by LC-MS/MS method; assay type: ADME, cell-based, Hepatocyte; settings: 1.5 h
[39] = Metabolic stability in dog liver microsomes assessed as intrinsic clearance at 1 uM incubated for 45 mins by LC-MS/MS method; assay type: ADME, Canis lupus familiaris, Microsome; settings: read-out: CLH
in vivo [40] = settings: male, Sprague-Dawley, rat, po, 100 mg/kg; remark: listed apart in the source

For `O=C1CCN(c2cc(C(=O)N3CCC(CC4CCN(c5ccc(-c6cnc7[nH]cc(-c8cnn(CC(F)(F)F)c8)c7n6)cn5)CC4)CC3)ccc2Cl)C(=O)N1`, the inhibition in vivo at 1 mg/kg (MC-38 [1]) was 78.2%, the C0 [2] was 794 ng/mL and the AUC(0-inf) [3] was 996 ng·h/mL. The CLH [4] was 2.97 µL/min/mg, the inhibition in vivo at 0.1 mg/kg (MC-38 [5]) was 39.7% and the Activity (MC-38 [6]) was 1.04 g. The Drug metabolism [7] was “metabolite_detected”, the Tmax [8] was 8 h and the AUC at 336 h (in vivo [9]) was 38200 ng·h/mL. The Vd [10] was 0.834 L/kg, the Cmax at 24 h (in vivo [11]) was 8620 ng/mL and the Emax at 0.5 mg/kg [12] was 61.3%. The Emax at 0.5 mg/kg [13] was 77.6%, the Tmax [14] was 6 h and the Cmax at 24 h (in vivo [15]) was 98.7 ng/mL. For the same compound, the AUC at 336 h (in vivo [16]) was 645 ng·h/mL, the Tmax [17] was 8 h and the clearance at 24 h [18] was 17 mL/min/kg. For the same compound, the Drug uptake [19] was “Active”, the half-life at 24 h [20] was 5.15 h and the AUC(0-inf) [21] was 12100 ng·h/mL. It also gave an AUC at 336 h (in vivo [22]) of 121000 ng·h/mL, a CLH [23] of 8.85 µL/min/mg and an Activity (MC-38 [24]) of 48.76%. The Drug metabolism [25] was “metabolite_detected”, the Activity (MC-38 [26]) was 139.92 mm3 and the Activity (MC-38 [27]) was 667.6 mm3. The Activity [28] was “Non-toxic”, the inhibition in vivo at 100 mg/kg (MC-38 [29]) was 56.9% and the Tmax [30] was 2.67 h. The half-life at 0.75 h, 1 µM (in vitro) was 4.12 h, the Activity [31] was “inactive” and the Activity [32] was 55.6%. The Activity [33] was “Non-toxic”, the Drug metabolism [34] was “metabolite_detected” and the AUC at 336 h (in vivo [35]) was 46000 ng·h/mL. For the same compound, the Activity (Jurkat) was “inactive”, the Activity [36] was 0.8 mg/kg/day and the Tmax [37] was 8 h. It also gave a CLH [38] of 1.92 µL/min/mg, a microsomal CLint at 1 µM [39] of 20.3 µL/min/mg and a Cmax at 336 h (in vivo [40]) of 11100 ng/mL.
